Reference: patent publication US20230112444A1, “COMBINATION THERAPIES OF CHIMERIC ANTIGEN RECEPTORS TARGETING B-CELL […] AND GAMMA SECRETASE INHIBITORS” (priority 2020, published 2023)
Where two headings read alike, the source gives them in different places.

Key:
gamma secretase [1] = test: Surface BCMA by flow cytometry / inhibition of gamma secretase activity in MM.1S cells exposed to PF-03084014; format: cell-based, human
Description: (§1) The BCMA-expressing multiple myeloma cell lines MM.1S and Molp-8 (ATCC), and the BCMA-negative acute lymphocytic leukemia cell line REH (ATCC) were expanded in RPMI medium containing L-glutamine and 10% FBS in a humidified CO2 incubator set to 37 degrees. The gamma secretase inhibitor (GSI) PF-03084014 (nirogacestat in the hydrobromide salt form, Sigma-Aldrich, #PZ0298) was diluted in H2O at mg/mL and further diluted in cell culture medium as needed. Cells were cultured in the presence of increasing concentrations of PF-03084014 or vehicle (control) in a humidified CO2 incubator set to 37° C. for 4 hours or 24 hours. Cells were then harvested by centrifugation for 5 min at 400×g and stained with a phycoerythrin (PE)-labeled anti-human BCMA antibody (BioLegend, Cat #357504) for 30 min at 4° C. Samples were analyzed by flow cytometry using a Cytoflex flow cytometer (Beckman Coulter) and expression levels of BCMA (mean fluorescence intensity, MFI) were determined using FlowJo version 10.4.1. Fold-change in surface BCMA was calculated as the MFI value of GSI-treated cells divided by the MFI value of cells receiving vehicle control. Maximal (100%) inhibition of gamma-secretase activity was defined as the maximal fold-change in surface BCMA. To obtain half-maximal effective concentration (EC50) values, gMFI was plotted as a function of the logarithm of the concentration of PF-03084014. The data was then fitted using a non-linear regression (four-parameter logistic curve) function and EC50 was calculated using GraphPad.
(§2) In a separate experiment, cytolytic activities of BCMA CAR-T cells were evaluated after the target multiple myeloma cells were first pre-incubated with PF-03084014. FIG. 25A depicts the cell surface expression level of BCMA on the multiple myeloma cell line MM.1S and the BCMA negative control cell line […] after a 24-hour culture in the presence of increasing concentrations of the gamma secretase inhibitor PF-03084014. The data is shown as mean fluorescence intensity (MFI) values of BCMA. FIG. 25B depicts the cytolytic activity of BCMA CAR T cells against MM.1S cells previously treated with PF-03084014 for 24 hours. In the cytolytic assay, BCMA CAR T cells and target cells were co-cultured at different effector to target (E:T) ratios for 24 hours and residual target cell viability was measured using bioluminescence. Results are shown as mean+/−SEM.

gamma secretase [2] = test: Surface BCMA by flow cytometry / inhibition of gamma secretase activity in Molp-8 cells exposed to PF-03084014; format: cell-based, human
Description: as §1

BCMA-negative REH cells = test: Surface BCMA by flow cytometry in BCMA-negative REH control cells exposed to PF-03084014; format: cell-based, human; conditions: REH negative control cell line, 4-hour treatment
Description: as §1, with “To obtain half-maximal effective concentration (EC50) values, gMFI was plotted as a function of the logarithm of the concentration of PF-03084014.” left out

BCMA CAR-T cells = test: Target-dependent BCMA CAR-T cell proliferation in the presence of PF-03084014 (co-culture with REH-BCMA cells); format: cell-based, human; conditions: Day 5, up to the highest concentration (FIG. 23)
From the text: A BCMA-negative acute lymphocytic leukemia cell line (REH) was genetically modified to overexpress BCMA with the use of a lentiviral vector encoding the human BCMA protein under regulatory control of the EF1alpha promoter (REH-BCMA cells). BCMA-overexpressing cells co-expressing luciferase and green fluorescent protein (GFP) were then created by transducing the cells with a Luc2AGFP/Blasticidin lentiviral vector following the manufacturer's recommendations. The exemplary BCMA CAR tested in the experiments comprises the VH amino acid sequence of SEQ ID NO: 33 and VL amino acid sequence of SEQ ID NO: 34). The BCMA CAR-T cells were generated and cryopreserved as previously described (Sommer et al., Molecular Therapy 2019, 27 (6): 1126-1138), thawed, and used in the assays as follows. Briefly, 5×10^5 CAR^+ T cells were co-cultured with 2×10^6 REH-BCMA cells in 2.5 mL of target cell medium (RPMI with L-glutamine, 10% FBS) without IL-2 using G-Rex 24-well plates. PF-03084014 was added to cells at increasing concentrations whereas the control wells received vehicle. […] On Day 5, cells were counted and the percentage of residual target cells and CAR-T cells were determined by flow cytometry analysis. […] Target-cell dependent proliferation/persistence in the presence or absence of PF-03084014 was determined by dividing the total number of CAR^+ cells by the starting cell number (5×10^5).

[3] = tested on: MM.1S, Molp-8 and REH-BCMA cells; test: In vitro cytolytic activity of BCMA CAR-T cells in the presence of PF-03084014 (luciferase); format: cell-based, human; conditions: PF-03084014 0.01 μM to 10 μM added during 24 hour co-culture, E:T 1:3, 1:1, 3:1 (FIG. 24)
Description: The multiple myeloma cell lines MM.1S and Molp-8 and the BCMA-overexpressing REH cell line (REH-BCMA cells) were used in these assays. The target cell lines have been modified to constitutively express the luciferase gene which allows assessment of cell viability via luminescence. The cytotoxic activity of BCMA CAR-T cells was determined by measuring the reduction of luminescence signal from live target cells after 24 hour co-culture with BCMA CAR-T cells at increasing effector to target (E:T) ratios (1:3, 1:1, 3:1). Briefly, 2×10^4 luciferase-expressing target cells were co-cultured with BCMA CAR-T cells at defined E:T ratios in target cell culture medium (RPMI with L-glutamine, 10% FBS) without IL-2. The GSI PF-03084014 was added to wells at increasing concentrations (0.01 μM to 10 μM) and cells were cultured in a humidified CO2 incubator set to 37° C. for 24 hours. Following the incubation period, 100 μL of Bright-GLO reagent (Promega) were added and luminescence was read on a luminometer (Spectramax; Molecular Devices). Relative luminescence units (RLU) were converted to percentage of lysed target cells using the formula 100×[1−(RLUtest/RLUcontrol)]. Untreated target cells were used to determine RLU control.

MM.1S cells = test: Cytolytic activity of BCMA CAR T cells against target cells pre-incubated with PF-03084014; format: cell-based, human; conditions: MM.1S target cells pre-incubated with PF-03084014 for 24 hours, then 24 hours co-culture (FIG. 25B)
Description: as §2

[4] = Phase 1 dose-finding study (A8641014) of nirogacestat, minimum concentration; format: in vivo, human; conditions: 100 mg BID, solid tumor patients; conversion of ng/mL value
Description: See, e.g., FIG. 22C. […] A dose of 100 mg BID nirogacestat is expected to maintain serum concentrations of nirogacestat at or above the levels required to prevent the cleavage of BCMA by gamma secretase, thereby leading to reduced soluble BCMA and increased membrane-bound BCMA.

[5] = 100 mg BID, solid tumor patients; cited from earlier work
[6] = 4-hour treatment, dose-dependent (FIG. 22A)

## CCC[C@H](N[C@H]1CCc2cc(F)cc(F)c2C1)C(=O)Nc1cn(C(C)(C)CNCC(C)(C)C)cn1 [PF-03084014, nirogacestat]
Gamma secretase [1]; [6]
  Levels of BCMA on the cell surface: increased levels of BCMA detected on the cell surface
Gamma secretase [1]; 24 hours incubation (FIG. 25A)
  Levels of BCMA on multiple myeloma cells (MFI): increased levels of BCMA
Gamma secretase [1]; 24 hours treatment (FIG. 22C)
  Inhibition of gamma secretase activity: dose-dependent inhibition of gamma secretase activity
Gamma secretase [1]; 24 hours treatment, flow cytometry of surface BCMA, read-out: EC50 on gamma secretase (surface BCMA) determined using the MM.1S cell line
  EC50: 0.00012 µM
Gamma secretase [2]; [6]
  Levels of BCMA on the cell surface: increased levels of BCMA detected on the cell surface
Gamma secretase [2]; 24 hours treatment (FIG. 22C)
  Inhibition of gamma secretase activity: dose-dependent inhibition of gamma secretase activity
Gamma secretase [2]; 24 hours treatment, flow cytometry of surface BCMA, read-out: EC50 on gamma secretase (surface BCMA) determined using the Molp-8 cell line
  EC50: 0.0224 µM
BCMA-negative REH cells
  Dose-dependent increase of BCMA on the cell surface: not seen
BCMA CAR-T cells
  Effect on target-dependent BCMA CAR-T cell expansion: did not negatively affect CAR-T cell expansion
[3]
  Effect on target cell killing by BCMA CAR-T cells: enhanced target cell killing was not observed
MM.1S cells
  Effect on cytolytic activity of BCMA CAR T cells: enhanced cytolytic effect
[4]
  Minimum concentration (Cmin): approximately 480 nM
[5]
  Minimum concentration (Cmin): 0.232 µg/mL
